Ten molecules from ChEMBL document CHEMBL1128119, “Partial structures of the fungal toxin aflatrem, methyl-substituted 6,8-dioxabicyclo[3.2.1]octan-2-ones have anticonvulsant activity” (Bioorg Med Chem Lett, 1995) can be followed below.

Broadly, the TD50 is the dose at which the toxic effect under study appears in half of the subjects. As usually defined, the ED50 is the dose that gives a 50% effect, or the effect in half of the subjects. Higher therefore signals weaker potency. By IC50 is commonly meant the midpoint of a concentration-inhibition curve. High values mean weaker potency in that assay, low ones greater potency in that assay.

Where only a bound is given, the exact number is not on record here.

Series [1] is described as follows: Toxic dose at which 50 percent of the mice failed the rotarod toxicity test. As to conditions: mouse, in vivo. The class given is organism-based. Background: Falling from the rotarod earlier than controls is read as motor impairment.
The species entered for series [2] is Mus musculus. The series can be described thus: Effective dose required for anticonvulsant activity against pentylenetetrazole-induced seizures in mice. The class given is functional.
Series [3] has as its target GABA-A receptor; anion channel. Description: Displacement of [35S]TBPS from Gamma-aminobutyric acid A (GABA-A) receptor of rat cerebral cortex. The class given is tissue-based. On the technique in general: In a radioligand displacement assay an active substance lowers the binding of a labelled ligand.

`CCC1(C)CCOC1=O` (stereo not drawn) had a TD50 in series [1] of over 500 mg/kg.

Take `C[C@@H]1CC(=O)[C@H]2O[C@@H]1OC2(C)C`: in series [2], the 50% effect level (ED50) was put at a dose of 110 mg/kg. For the same molecule, the 50% inhibitory concentration (IC50) in series [3] is 2850 µM.

On to `CCC1CCCCC1=O` (stereo not drawn), for which the ED50 in series [2] was 140 mg/kg. The same molecule showed an IC50 in series [3] of 1200 µM. The TD50 in series [1] is 245 mg/kg.

As to `C=CC(C)(C)c1cccc2[nH]c3c(c12)C[C@@H]1CC[C@@]2(O)C4=CC(=O)[C@@H]5O[C@@]4(CC[C@]2(C)[C@@]31C)OC5(C)C`, the IC50 in series [3] worked out at 4.3 µM.

With `CC1(C)OC2CCC(=O)C1O2` (stereo not drawn), the ED50 in series [2] amounted to 192 mg/kg. Also, the concentration for half-maximal inhibition (IC50) in series [3] worked out at 5090 µM. The TD50 in series [1] was over 300 mg/kg.

In series [2], `CC1(C)OC2C=CC(=O)C1O2` (stereo not drawn) returned a median effective dose (ED50) of over 300 mg/kg. In series [1], this molecule registered a TD50 of under 100 mg/kg.

On to `C[C@H]1CC(=O)[C@@H]2O[C@H]1OC2(C)C`, for which the ED50 in series [2] came to 145 mg/kg. The molecule also came in with an IC50 in series [3] of 3090 µM.

For `CC12CCC(=O)C(O1)C(C)(C)O2` (stereo not drawn), in series [2], the ED50 was determined as 247 mg/kg. This molecule also registered a concentration for half-maximal inhibition (IC50) in series [3] of 3130 µM. The TD50 in series [1] is over 300 mg/kg.

`CC1CC(=O)C2OC1(C)OC2(C)C` (stereo not drawn) displayed an ED50 in series [2] of 140 mg/kg. In series [3], this molecule came in with an IC50 of 2310 µM. The TD50 in series [1] is over 300 mg/kg.

`CC1CC(=O)C2OC1OC2(C)C` (stereo not drawn): it took a dose of 131 mg/kg to reach the 50% effect level in series [2] (ED50). In series [3], the IC50 stood at 3020 µM. Further, in series [1], the TD50 was over 300 mg/kg.
